Laboratory results as given in US7163946B2 (Ligand Pharmaceuticals Incorporated, priority 2002, dated 2007).
Read-outs that look alike come from different tables or passages of the source.

How the values were obtained:
hPR [1] = biological target: T1, hPR (Homo sapiens, UniProt P06401)
T1 sequence (P06401 1-933): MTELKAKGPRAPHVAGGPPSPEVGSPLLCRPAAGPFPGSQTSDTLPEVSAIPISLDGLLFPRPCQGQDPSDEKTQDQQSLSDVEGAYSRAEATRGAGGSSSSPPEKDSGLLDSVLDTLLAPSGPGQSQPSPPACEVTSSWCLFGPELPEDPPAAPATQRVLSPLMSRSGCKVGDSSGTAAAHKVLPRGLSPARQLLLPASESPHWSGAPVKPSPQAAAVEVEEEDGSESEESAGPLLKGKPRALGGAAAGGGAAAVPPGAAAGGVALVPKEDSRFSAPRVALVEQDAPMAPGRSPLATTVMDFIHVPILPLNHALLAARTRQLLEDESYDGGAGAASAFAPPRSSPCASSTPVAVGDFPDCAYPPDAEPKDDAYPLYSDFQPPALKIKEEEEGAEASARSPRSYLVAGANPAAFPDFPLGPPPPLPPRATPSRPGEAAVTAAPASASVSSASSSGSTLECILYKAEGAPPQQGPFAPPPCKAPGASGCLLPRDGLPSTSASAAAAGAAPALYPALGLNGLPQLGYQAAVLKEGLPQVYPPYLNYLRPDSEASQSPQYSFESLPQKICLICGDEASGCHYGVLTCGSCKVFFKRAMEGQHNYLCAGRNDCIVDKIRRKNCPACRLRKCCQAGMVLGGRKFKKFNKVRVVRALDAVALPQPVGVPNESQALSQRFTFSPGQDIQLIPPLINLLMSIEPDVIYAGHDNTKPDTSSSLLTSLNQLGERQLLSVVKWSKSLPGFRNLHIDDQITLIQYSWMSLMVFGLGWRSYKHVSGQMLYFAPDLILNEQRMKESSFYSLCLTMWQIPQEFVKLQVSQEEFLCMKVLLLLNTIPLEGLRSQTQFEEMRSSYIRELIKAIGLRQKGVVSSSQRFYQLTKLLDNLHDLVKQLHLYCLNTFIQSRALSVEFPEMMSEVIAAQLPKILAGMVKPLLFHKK

immature rabbits = assay: McPhail (Clauberg) rabbit assay of progestational activity; format: in vivo; settings: Oryctolagus cuniculus; estradiol-primed immature rabbits; glandular changes of the uterus; read-out: potency (MAD in mg/kg), minimum active dose
Description: The superiority of the 7,9-difluoro analogue compounds of the present invention was further characterized utilizing the McPhail rabbit model according to the following illustrative Examples. The Clauberg or McPhail assay is a classic assay utilizing rabbits to measure progestational activity. […] In this assay, immature rabbits are treated initially with estradiol, which induces growth in the uterus. This is followed by a progestin, which causes a large change in the glandular content of the uterus. It is this change in the glandular component which is a measure of the progestational activity of a progestin. The measurement of these glandular changes is carried out histologically using stained sections of the uterus. The in vivo comparison between the new 7,9-difluoro compounds and analogues with substitution patterns different from 7,9-difluoro (U.S. Pat. Nos. 5,693,646 and 5,696,127) is tabulated in Tables 7 and 8. The in vivo potency of the progestins is presented as the minimum active dose (MAD).

[2] = system: ovariectomized female rats; assay: Multi-endpoint adult rat model, uterus/breast tissue-selectivity; format: in vivo; settings: ratio of relative efficacy to MPA in uterus verse in breast tissue at the same highest dose tested; estrone-treated ovariectomized rats, three days
Description: In this assay, advantage is taken of the fact that in the uterus, estrogens induce a proliferation and increase in the epithelial cell height and uterine wet weight, which can be antagonized by progestins. In the breast, estrogens induce a proliferation of the ductal network while progestins stimulate the growth of the lobular-alveolar end buds, which grow from the distal end of the ducts. […] Proliferating cells or inhibition of proliferating cells were quantitated either by measurements of cell height in sectioned and stained tissue samples or, in the case of the breast, immuno-histochemically labeled Brdu incorporated nuclei.

hPR [3] = biological target: T1, hPR; assay: hPR cotransfection assay in CV-1 cells, agonist mode; format: cell-based; settings: CV-1 cells
Description: (§1) Antagonist efficacy was determined as a function (%) of maximal inhibition of a reference agonist at EC50 concentration. All the cotransfection experiments were carried out in 96-well plates by automation (Beckman Biomomek automated workstation).

hPR [4] = biological target: T1, hPR; assay: hPR cotransfection assay in CV-1 cells, antagonist mode; format: cell-based; settings: CV-1 cells
Description: as §1

hPR-A = biological target: T2, hPR-A (Homo sapiens, UniProt P06401); assay: Receptor competitive binding assay; settings: read-out: PR binding Ki
T2 sequence (P06401 1-769 isoform P06401-2): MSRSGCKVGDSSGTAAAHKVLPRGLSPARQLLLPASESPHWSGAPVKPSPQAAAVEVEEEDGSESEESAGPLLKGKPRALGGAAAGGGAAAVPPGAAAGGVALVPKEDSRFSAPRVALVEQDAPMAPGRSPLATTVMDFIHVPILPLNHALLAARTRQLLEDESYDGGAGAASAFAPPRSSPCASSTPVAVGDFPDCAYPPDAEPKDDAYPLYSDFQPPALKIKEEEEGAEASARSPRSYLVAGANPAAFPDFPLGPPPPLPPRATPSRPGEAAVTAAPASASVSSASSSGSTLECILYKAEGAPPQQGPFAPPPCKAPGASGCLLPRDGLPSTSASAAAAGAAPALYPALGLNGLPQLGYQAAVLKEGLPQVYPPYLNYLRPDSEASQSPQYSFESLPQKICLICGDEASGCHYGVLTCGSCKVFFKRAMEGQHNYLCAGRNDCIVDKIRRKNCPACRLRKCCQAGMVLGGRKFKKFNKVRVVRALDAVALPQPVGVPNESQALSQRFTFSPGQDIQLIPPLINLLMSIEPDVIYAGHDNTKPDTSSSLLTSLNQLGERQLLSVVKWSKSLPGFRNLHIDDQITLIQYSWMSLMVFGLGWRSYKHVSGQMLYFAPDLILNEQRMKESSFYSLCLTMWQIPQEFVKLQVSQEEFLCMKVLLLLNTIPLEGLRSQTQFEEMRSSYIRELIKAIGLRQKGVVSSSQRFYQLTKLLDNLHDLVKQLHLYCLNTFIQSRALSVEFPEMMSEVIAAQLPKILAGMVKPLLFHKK

hPR [5] = biological target: T3, hPR (Homo sapiens, UniProt P06401); assay: T47D alkaline phosphatase assay, agonist mode; format: cell-based; settings: T47D human breast cancer cells
T3 sequence (P06401 679-933 limits assumed): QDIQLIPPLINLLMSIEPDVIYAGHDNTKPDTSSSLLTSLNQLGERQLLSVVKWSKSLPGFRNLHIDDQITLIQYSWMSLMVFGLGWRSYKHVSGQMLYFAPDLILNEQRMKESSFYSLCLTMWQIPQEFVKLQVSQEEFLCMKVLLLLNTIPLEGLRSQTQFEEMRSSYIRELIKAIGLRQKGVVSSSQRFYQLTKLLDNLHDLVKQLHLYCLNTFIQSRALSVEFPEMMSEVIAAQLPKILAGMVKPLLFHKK
Description: The potential tissue-selectivities of the selected analogues were examined by using the T47D alkaline phosphatase assay that was developed from human breast cancer cells with endogenous PRs.

[6] = footnote a: EC50 data from U.S. Pat. Nos. 5693646/5693647/5696127; read-out: hPR agonist potencies (EC50 in nM) in the cotransfection assay; cited from earlier work
[7] = footnote b: EC50 data from J. Med. Chem. 41 (1998), 291 and 303; read-out: hPR agonist potencies (EC50 in nM) in the cotransfection assay; cited from earlier work

SMILES | EC50 (hPR [1]; [6]) [nM] | EC50 (hPR [1]; [7]) [nM] | uterus/breast tissue-selectivity [2] | other results
CC1=CC(C)(C)Nc2ccc3c(c21)C(c1cccc(F)c1)Oc1ccccc1-3 (centres unmarked) [Formula I X=H 3-F-Ph] | 9 | – | – | –
CC1=CC(C)(C)Nc2ccc3c(c21)C(=Cc1ccccc1)Oc1ccccc1-3 [Formula II X=H Phenyl] | 33 | – | – | –
CC1=CC(C)(C)Nc2ccc3c(c21)C(=Cc1ccccc1C)Oc1ccccc1-3 [Formula II X=H 2-Me-Ph] | – | 5.7 | – | –
CC1=CC(C)(C)Nc2ccc3c(c21)C(=Cc1ccccc1C)Oc1ccc(F)cc1-3 [Formula II X=9-F 2-Me-Ph, reference compound] | 4 | – | 2.3 | minimal effective dose (immature rabbits): 1.2 mg/kg
CC1=CC(C)(C)Nc2ccc3c(c21)C(=Cc1cccc(F)c1)Oc1ccccc1-3 [Formula II X=H 3-F-Ph, reference compound] | – | – | 0.69 | EC50 (hPR [1]; read-out: hPR agonist potencies (EC50 in nM) in the cotransfection assay; footnote b: EC50 data from J. Med. Chem. 41 (1998), 291 and 303; cited from earlier work): 7.6 nM
CC1=CC(C)(C)Nc2ccc3c(c21)C(c1ccccc1)Oc1ccccc1-3 (centres unmarked) [Formula I X=H Ph, reference compound] | 203 | – | 0.78 | –
CC1=CC(C)(C)Nc2ccc3c(c21)C(=Cc1ccc(F)cc1)Oc1ccccc1-3 [Formula II X=H 4-F-Ph] | – | 59.5 | – | –
CC1=CC(C)(C)Nc2ccc3c(c21)C(=Cc1cc(F)ccc1F)Oc1ccccc1-3 [Formula II X=H 2,5-diF-Ph] | – | 14.7 | – | –
CC1=CC(C)(C)Nc2ccc3c(c21)C(=Cc1ccccc1Cl)Oc1ccccc1-3 [Formula II X=H 2-Cl-Ph] | – | 57.8 | – | –
CC1=CC(C)(C)Nc2ccc3c(c21)C(=Cc1ccccc1F)Oc1ccccc1-3 [Formula II X=H 2-F-Ph] | – | 29 | – | –
CC1=CC(C)(C)Nc2ccc3c(c21)C(c1ccc(Cl)c(C)c1)Oc1c(F)cc(F)cc1-3 (single isomer, unassigned; (-)) [Compound 38, (−)-7,9-difluoro-5-(4-chloro-3-methylphenyl)-1,2-dihydro-2,2,4-trimethyl-5H-chromeno[3,4-f]quinoline] | – | – | 2.8 | minimal effective dose (immature rabbits): 0.25 mg/kg; EC50 (hPR [3]; read-out: hPR Agonist CV-1 Cells EC50): 1.2 nM; hPR Agonist CV-1 Cells Eff. (%) (hPR [3]; relative to maximal response of progesterone as 100%): 110%; IC50 (hPR [4]): > 10000 nM; hPR Antagonist CV-1 Cells Eff. (%) (hPR [4]; maximal inhibition of reference agonist at EC50 concentration): na (na = not active (i.e. efficacy of <20 and potency of >10,000)); Ki (hPR-A): 2 nM; EC50 (hPR [5]): 6.2 nM; hPR Agonist T47D cells Eff. (%) (hPR [5]): 54%
